Results: patent US20180184654A1, “Pesticidal Compositions Comprising a Triazole Compound” (BASF Agro B.V., priority 2015, published 2018)

Columns and labels:
Leptosphaeria nodorum = assay: Microtest: activity against wheat leaf spots caused by Leptosphaeria nodorum (Leptno); format: cell-based; settings: MTP, 405 nm, 7 days after inoculation
Protocol: (§1) The active compounds were formulated separately as a stock solution having a concentration of 10000 ppm in dimethyl sulfoxide.
(§2) The stock solutions were mixed according to the ratio, pipetted onto a micro titer plate (MTP) and diluted with water to the stated concentrations. A spore suspension of Leptosphaeria nodorum in an aqueous biomalt or yeast-bactopeptone-glycerine solution was then added. The plates were placed in a water vapor-saturated chamber at a temperature of 18° C. Using an absorption photometer, the MTPs were measured at 405 nm 7 days after the inoculation.
(§3) The measured parameters were compared to the growth of the active compound-free control variant (100%) and the fungus-free and active compound-free blank value to determine the relative growth in % of the pathogens in the respective active compounds.
(§4) These percentages were converted into efficacies.
(§5) The expected efficacies of active compound mixtures were determined using Colby's formula [R. S. Colby, “Calculating synergistic and antagonistic responses of herbicide combinations”, Weeds 15, 20-22 (1967)] and compared with the observed efficacies.

Septoria tritici = assay: Microtest: activity against leaf blotch on wheat caused by Septoria tritici (Septtr); format: cell-based; settings: MTP, 405 nm, 7 days after inoculation
Protocol: as §1
as §2, with “Septoria tritici” for “Leptosphaeria nodorum”
as §3, §4, §5

SMILES | Observed efficacy (Leptosphaeria nodorum; single compound at 0.016 ppm) [%] | Observed efficacy (Septoria tritici; single compound at 0.001 ppm) [%] | Observed efficacy (Leptosphaeria nodorum; single compound at 63 ppm) [%] | Observed efficacy (Septoria tritici; single compound at 4 ppm) [%] | Observed efficacy (Septoria tritici; single compound at 16 ppm) [%]
CC(O)(Cn1cncn1)c1ccc(Oc2ccc(Cl)cc2)cc1C(F)(F)F (stereo not shown) [I-3, 2-[4-(4-chlorophenoxy)-2-(trifluoromethyl)phenyl]-1-(1,2,4-triazol-1-yl)propan-2-ol] | 23 | 6 |  |  | 
CCN(C(=O)c1cnn(C(C)C(C)C)c1C)c1ccnnc1 (stereo not shown) [II-2, 1-(1,2-dimethylpropyl)-N-ethyl-5-methyl-N-pyridazin-4-yl-pyrazole-4-carboxamide] |  |  | 7 | 7 | 
CCN(C(=O)c1cnn(C(C)C2(C#N)CC2)c1C)c1ccnnc1 (stereo not shown) [II-4, 1-[1-(1-cyanocyclopropyl)ethyl]-N-ethyl-5-methyl-N-pyridazin-4-yl-pyrazole-4-carboxamide] |  |  | 2 |  | 
CCN(C(=O)c1cnn(C(C)C(C)F)c1C)c1ccnnc1 (stereo not shown) [II-5, N-ethyl-1-(2-fluoro-1-methyl-propyl)-5-methyl-N-pyridazin-4-yl-pyrazole-4-carboxamide] |  |  | 12 |  | 9
